# What was measured:
# Type in all cases: functional
# CAKI-1 = test: Cytotoxicity against Homo sapiens (human) Caki1 cells after 48 hr by sulforhodamine B assay; settings: CAKI-1, 48 h
# EKVX = test: Cytotoxicity against Homo sapiens (human) EKVX cells after 48 hr by sulforhodamine B assay
# DU-145 = test: Cytotoxicity against Homo sapiens (human) DU145 cells after 48 hr by sulforhodamine B assay; settings: DU-145, 48 h
# SK-OV-3 = test: Cytotoxicity against Homo sapiens (human) SKOV3 cells after 48 hr by sulforhodamine B assay; settings: SK-OV-3, 48 h
# RXF 393 = test: Cytotoxicity against Homo sapiens (human) RXF393 cells after 48 hr by sulforhodamine B assay; settings: RXF 393, 48 h
# BT-549 = test: Cytotoxicity against Homo sapiens (human) BT549 cells after 48 hr by sulforhodamine B assay; settings: BT-549, 48 h
# SK-MEL-5 = test: Cytotoxicity against Homo sapiens (human) SK-MEL-5 cells after 48 hr by sulforhodamine B assay; settings: SK-MEL-5, 48 h
# SF-295 = test: Cytotoxicity against Homo sapiens (human) SF295 cells after 48 hr by sulforhodamine B assay; settings: SF-295, 48 h
# NCI-H460 = test: Cytotoxicity against Homo sapiens (human) NCI-H460 cells after 48 hr by sulforhodamine B assay; settings: NCI-H460, 48 h
# M14 = test: Cytotoxicity against Homo sapiens (human) M14 cells after 48 hr by sulforhodamine B assay; settings: M14, 48 h
# HCC 2998 = test: Cytotoxicity against Homo sapiens (human) HCC2998 cells after 48 hr by sulforhodamine B assay; settings: HCC 2998, 48 h
# SK-MEL-2 = test: Cytotoxicity against Homo sapiens (human) SK-MEL-2 cells after 48 hr by sulforhodamine B assay; settings: SK-MEL-2, 48 h
# IGROV-1 = test: Cytotoxicity against Homo sapiens (human) IGROV1 cells after 48 hr by sulforhodamine B assay; settings: IGROV-1, 48 h
# OVCAR-8 = test: Cytotoxicity against Homo sapiens (human) OVCAR8 cells after 48 hr by sulforhodamine B assay; settings: OVCAR-8, 48 h
# UO-31 = test: Cytotoxicity against Homo sapiens (human) UO31 cells after 48 hr by sulforhodamine B assay; settings: UO-31, 48 h
# [1] = Cytotoxicity against Homo sapiens (human) NCI-ADR-RES cells after 48 hr by sulforhodamine B assay
# CCRF-CEM = test: Cytotoxicity against Homo sapiens (human) CCRF-CEM cells after 48 hr by sulforhodamine B assay
# SK-MEL-28 = test: Cytotoxicity against Homo sapiens (human) SK-MEL-28 cells after 48 hr by sulforhodamine B assay; settings: SK-MEL-28, 48 h
# MCF7 [2] = test: Cytotoxicity against Homo sapiens (human) MCF7 cells after 48 hr by sulforhodamine B assay; settings: MCF7, 48 h
# MOLT-4 = test: Cytotoxicity against Homo sapiens (human) MOLT4 cells after 48 hr by sulforhodamine B assay; settings: MOLT-4, 48 h
# NCI-H23 = test: Cytotoxicity against Homo sapiens (human) NCI-H23 cells after 48 hr by sulforhodamine B assay; settings: NCI-H23, 48 h
# LOX IMVI = test: Cytotoxicity against Homo sapiens (human) LOXIMVI cells after 48 hr by sulforhodamine B assay
# OVCAR-3 = test: Cytotoxicity against Homo sapiens (human) OVCAR3 cells after 48 hr by sulforhodamine B assay; settings: OVCAR-3, 48 h
# T47D = test: Cytotoxicity against Homo sapiens (human) T47D cells after 48 hr by sulforhodamine B assay
# MCF7 [3] = test: Cytotoxicity against Homo sapiens (human) MCF7 cells assessed as cell growth at 10^-4 M after 48 hr by Alamar blue assay; settings: MCF7, 48 h, read-out: Activity
# HT-29 = test: Cytotoxicity against Homo sapiens (human) HT-29 cells after 48 hr by sulforhodamine B assay; settings: HT-29, 48 h
# PC-3 = test: Cytotoxicity against Homo sapiens (human) PC3 cells after 48 hr by sulforhodamine B assay; settings: PC-3, 48 h
# OVCAR-5 = test: Cytotoxicity against Homo sapiens (human) OVCAR5 cells after 48 hr by sulforhodamine B assay; settings: OVCAR-5, 48 h
# U-251 = test: Cytotoxicity against Homo sapiens (human) U251 cells after 48 hr by sulforhodamine B assay; settings: U-251, 48 h
# HOP-62 = test: Cytotoxicity against Homo sapiens (human) HOP62 cells after 48 hr by sulforhodamine B assay; settings: HOP-62, 48 h
# NCI-H322M = test: Cytotoxicity against Homo sapiens (human) NCI-H322M cells after 48 hr by sulforhodamine B assay
# SF-268 = test: Cytotoxicity against Homo sapiens (human) SF268 cells after 48 hr by sulforhodamine B assay; settings: SF-268, 48 h
# [4] = read-out: LC50 (the source's name)
smiles,measurement,setting,value
ClCc1ccccc1Cn1cnc2nc(Cl)nc(Cl)c21,GI50,CAKI-1,19.5 µM
same,TGI,CAKI-1,34.7 µM
same,CC50,CAKI-1; [4],61.6 µM
same,GI50,EKVX,1.73 µM
same,TGI,EKVX,3.23 µM
same,CC50,EKVX; [4],6.02 µM
same,LC50,DU-145,7.24 µM
same,GI50,SK-OV-3,5.88 µM
same,LC50,SK-OV-3,56.2 µM
same,TGI,SK-OV-3,20.9 µM
same,GI50,RXF 393,0.001 µM
same,TGI,RXF 393,1.9 µM
same,CC50,RXF 393; [4],6.45 µM
same,GI50,BT-549,1.34 µM
same,LC50 (50% lethal concentration),BT-549,7.07 µM
same,TGI,BT-549,3.09 µM
same,GI50,SK-MEL-5,0.74 µM
same,LC50,SK-MEL-5,5.49 µM
same,TGI,SK-MEL-5,2.18 µM
same,GI50,SF-295,19.9 µM
same,TGI,SF-295,35.5 µM
same,CC50,SF-295; [4],61.6 µM
same,GI50,NCI-H460,2.39 µM
same,TGI,NCI-H460,5.88 µM
same,CC50,NCI-H460; [4],> 100 µM
same,GI50,M14,1.86 µM
same,LC50,M14,6.45 µM
same,TGI,M14,3.46 µM
same,GI50,HCC 2998,18.6 µM
same,TGI,HCC 2998,35.5 µM
same,CC50,HCC 2998; [4],66.1 µM
same,GI50,SK-MEL-2,2.75 µM
same,LC50 (concentration killing 50% of cells),SK-MEL-2,> 100 µM
same,TGI,SK-MEL-2,5.75 µM
same,GI50,IGROV-1,2.88 µM
same,LC50,IGROV-1,9.54 µM
same,TGI,IGROV-1,5.24 µM
same,GI50,OVCAR-8,2.75 µM
same,LC50 (concentration killing 50% of cells),OVCAR-8,75.9 µM
same,TGI,OVCAR-8,7.07 µM
same,GI50,UO-31,1.73 µM
same,GI50,[1],2.34 µM
same,LC50 (concentration killing 50% of cells),[1],> 100 µM
same,TGI,[1],5.01 µM
same,GI50,CCRF-CEM,0.1 µM
same,TGI,CCRF-CEM,0.3 µM
same,CC50,CCRF-CEM; [4],0.93 µM
same,GI50,SK-MEL-28,0.35 µM
same,LC50 (concentration killing 50% of cells),SK-MEL-28,> 100 µM
same,TGI,SK-MEL-28,> 100 µM
same,GI50,MCF7 [2],1.04 µM
same,LC50 (concentration killing 50% of cells),MCF7 [2],> 100 µM
same,TGI,MCF7 [2],2.57 µM
same,GI50,MOLT-4,1.34 µM
same,TGI,MOLT-4,3.23 µM
same,CC50,MOLT-4; [4],7.94 µM
same,GI50,NCI-H23,19.1 µM
same,TGI,NCI-H23,40.7 µM
same,CC50,NCI-H23; [4],87.1 µM
same,GI50,LOX IMVI,0.16 µM
same,LC50,LOX IMVI,0.72 µM
same,TGI,LOX IMVI,0.35 µM
same,GI50,OVCAR-3,14.1 µM
same,LC50,OVCAR-3,53.7 µM
same,TGI,OVCAR-3,27.5 µM
same,GI50,T47D,0.58 µM
same,LC50,T47D,> 100 µM
same,TGI,T47D,5.24 µM
same,growth at 100 µM,MCF7 [3],0%
same,GI50,HT-29,0.4 µM
same,TGI,HT-29,> 100 µM
same,CC50,HT-29; [4],> 100 µM
same,GI50,PC-3,0.75 µM
same,TGI,PC-3,2.57 µM
same,GI50,OVCAR-5,2.69 µM
same,TGI,OVCAR-5,5.75 µM
same,CC50,OVCAR-5; [4],28.8 µM
same,GI50,U-251,0.33 µM
same,LC50 (concentration killing 50% of cells),U-251,3.63 µM
same,TGI,U-251,1.17 µM
same,GI50,HOP-62,2.69 µM
same,TGI,HOP-62,5.49 µM
same,CC50,HOP-62; [4],16.6 µM
same,GI50,NCI-H322M,4.26 µM
same,TGI,NCI-H322M,14.5 µM
same,CC50,NCI-H322M; [4],39.8 µM
same,GI50,SF-268,3.01 µM
same,TGI,SF-268,24.5 µM
same,CC50,SF-268; [4],> 100 µM

# From ChEMBL document CHEMBL3044672, “N9- and N7-(Chloromethyl Phenymethyl)Chloropurine Derivatives from , '-Dichloroxylenes: Synthesis and Anticancer Activity” (2005)
